Experimental findings from patent publication EP4273147A1, “SUBSTITUTED SPIROLACTAMS, SALTS THEREOF AND THEIR USE AS HERBICIDALLY ACTIVE SUBSTANCES” (Bayer Aktiengesellschaft, priority 2022, dated 2023) are described below.

In one test the test system is AMARE. The experiment in a line: Herbicidal pre-emergence action, section C (Table C3). The test is classed as in vivo, Amaranthus retroflexus. To be noted: application rate 320 g/ha; visual grading after ca. 3 weeks.
A further test relates to ALOMY. Nature of the test: Herbicidal pre-emergence action, section C (Table C2). In kind it is in vivo, Alopecurus myosuroides. To be noted: application rate 320 g/ha; visual grading after ca. 3 weeks.
Test [1] has as its system DIGSA. The experiment in a line: Herbicidal pre-emergence action, section C (Table C5). In kind it is in vivo, Digitaria sanguinalis. The conditions noted are these: application rate 320 g/ha; visual grading after ca. 3 weeks.
For test [2], the system named is ECHCG. The experiment in a line: Herbicidal pre-emergence action, section C (Table C6). In kind it is in vivo, Echinochloa crus-galli. The conditions noted are these: application rate 320 g/ha; visual grading after ca. 3 weeks.
The test system of a further test is LOLRI. Nature of the test: Herbicidal pre-emergence action (Table A3). In kind it is in vivo, Lolium rigidum. To be noted: application rate 320 g/ha; visual grading after ca. 3 weeks. The method, boiled down: (§1)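 Sandy loam filled the pots; weed seeds went in as paired sowings of one grass-type and one broadleaf species, then were covered with soil.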
The subject of another test is SETVI. The experiment in a line: Herbicidal pre-emergence action (Table A5). In kind it is in vivo, Setaria viridis. The conditions noted are these: application rate 320 g/ha; visual grading after ca. 3 weeks. The method, boiled down: as §1
For another test, the system named is MATIN. Nature of the test: Herbicidal pre-emergence action (Table A4). To be noted: application rate 1280 g/ha; visual grading after ca. 3 weeks. The test is classed as in vivo, Matricaria inodora. The method, boiled down:
as §1

Test [3] concerns DIGSA. The experiment in a line: Herbicidal post-emergence action (Table B12). The test is classed as in vivo, Digitaria sanguinalis. To be noted: application rate 1280 g/ha. Here is the method:
Seeds of mono- and dicotyledonous weed plants were placed in plastic pots in sandy loam soil (doubly sown with in each case one species of mono- or dicotyledonous weed plants per pot), covered with soil and cultivated in a greenhouse under controlled growth conditions. 2 to 3 weeks after sowing, the test plants were treated at the one-leaf stage. […] After the test plants had been kept in the greenhouse under optimum growth conditions for about 3 weeks, the activity of the preparations was rated visually in comparison to untreated controls. For example, 100% activity = the plants have died, 0% activity = like control plants.

In a further test the test system is STEME. The experiment in a line: Herbicidal pre-emergence action (Table A6). To be noted: application rate 320 g/ha; visual grading after ca. 3 weeks. The test is classed as in vivo, Stellaria media. The procedure, abridged: as §1
Test [4] relates to ECHCG. The experiment in a line: Herbicidal pre-emergence action (Table A2). The conditions noted are these: application rate 320 g/ha; visual grading after ca. 3 weeks. The test is classed as in vivo, Echinochloa crus-galli. The procedure, abridged: as §1
Test [5] relates to DIGSA. Nature of the test: Herbicidal pre-emergence action (Table A12). In kind it is in vivo, Digitaria sanguinalis. The conditions noted are these: application rate 320 g/ha; visual grading after ca. 3 weeks. The procedure, abridged: as §1
Another test deals with POAAN. The experiment in a line: Herbicidal pre-emergence action (Table A7). The test is classed as in vivo, Poa annua. The conditions noted are these: application rate 320 g/ha; visual grading after ca. 3 weeks. The method, boiled down:
as §1

Another test has as its system KCHSC. The experiment in a line: Herbicidal pre-emergence action (Table A10). In kind it is in vivo, Kochia scoparia. The conditions noted are these: application rate 1280 g/ha; visual grading after ca. 3 weeks. The procedure, abridged: as §1

Description for AMARE: Seeds of mono- and dicotyledonous weed plants and crop plants were sown, in plastic or organic planting pots, in sandy loam and covered with soil. The compounds according to the invention, formulated in the form of wettable powders (WP) or as emulsifiable concentrates (EC), were applied to the surface of the covering soil as aqueous suspension or emulsion, with the addition of 0.5% of an additive, at an application rate of 600 1 of water/ha (converted). Following treatment, the pots were placed in a greenhouse and kept under optimum growth conditions for the test plants.

As to `O=C1N(Cc2cc(F)c(F)cc2F)CCCC12CCCN(Cc1cc(F)c(F)cc1F)C2=O` (racemic) [I-213, 2,8-bis[(2,4,5-trifluorophenyl)methyl]-2,8-diazaspiro[5.5]undecane-1,7-dione], the “pre-emergence activity against AMARE” value in the test on AMARE is on record as 90%. Besides, the “pre-emergence activity against ALOMY” value with ALOMY came out at 90%. In addition, the “pre-emergence activity against DIGSA” value with DIGSA [1] is on record as 80%. The “pre-emergence activity against ECHCG” value in the test with ECHCG [2] was 100%.
Turning to `O=C1N(Cc2ccccc2)CCC12CCCN(Cc1c(F)cccc1F)C2=O` (racemic) [I-089], the “pre-emergence activity against LOLRI” value in the test with LOLRI is 100%. Besides, the “pre-emergence activity against SETVI” value with SETVI turned out to be 100%. Besides, in the test on MATIN, the “pre-emergence activity against MATIN” value is 90%. Further, the “post-emergence activity against DIGSA” value with DIGSA [3] is recorded as 90%. The “pre-emergence activity against STEME” value with STEME is recorded as 90%. Also, the “pre-emergence activity against ECHCG” value in the test with ECHCG [4] was 100%. The “pre-emergence activity against DIGSA” value in the test on DIGSA [5] came out at 90%. In addition, the “pre-emergence activity against POAAN” value in the test with POAAN worked out at 100%. In addition, in the test with KCHSC, the “pre-emergence activity against KCHSC” value came to 90%.
